ChEMBL document CHEMBL1795238, “Structure-brain exposure relationships in rat and human using a novel data set of unbound drug concentrations in brain interstitial and cerebrospinal fluids” (J Med Chem, 2009)

How the values were obtained:
Plasma [1] = details: rat, iv, 4 h
Brain = details: rat, in vivo, iv, 4 h
in vivo [2] = details: Sprague-Dawley, rat, iv, 2 (umol/kg)/hr
in vivo [3] = details: Sprague-Dawley, rat, iv, 2 (umol/kg)/hr; remark: listed apart in the source
in vitro = details: Sprague-Dawley, rat, plasma, iv, 2 (umol/kg)/hr
clinical = details: human, CSF and plasma
[4] = rat, brain, iv, 4 h
in vivo [5] = details: Sprague-Dawley, rat, iv, 2 (umol/kg)/hr; remark: listed apart in the source
Plasma [6] = details: rat, iv, 4 h; remark: listed apart in the source

SMILES	Cp(f) (Plasma [1])	Vdu (Brain)	Kp at 4 h (in vivo [2]; brain)	Kp uu at 4 h (in vivo [3]; brain)	fraction unbound at 4 h (in vitro)	Kp uu (clinical)	BPR [4]	Kp uu at 4 h (in vivo [3]; brain and plasma)	Kp uu at 4 h (in vivo [5]; CSF and plasma)	Kp uu at 4 h (in vivo [5]; csf)	Kp at 4 h (in vivo [2]; brain and plasma)	BPR ([4]; Sprague-Dawley, 2 (umol/kg)/hr)	Fu (Plasma [6])
CC(C)(C)NC(=O)[C@@H]1C[C@@H]2CCCC[C@@H]2CN1C[C@@H](O)[C@H](Cc1ccccc1)NC(=O)[C@H](CC(N)=O)NC(=O)c1ccc2ccccc2n1	3 nM	208 mL	0.08	0.055	0.007	0.096							
Cc1c(O)cccc1C(=O)N[C@@H](CSc1ccccc1)[C@H](O)CN1C[C@H]2CCCC[C@H]2C[C@H]1C(=O)NC(C)(C)C	1.9 nM	860 mL				0.045	0.04	0.019	0.067				
COc1ccc(CCN(C)CCCC(C#N)(c2ccc(OC)c(OC)c2)C(C)C)cc1OC (stereo not given)	75 nM												
C=CCc1ccccc1OCC(O)CNC(C)C (stereo not given) [ALPRENOLOL]	280 nM	50 mL	8.27	0.38	0.44					0.33			
CN(C)CCC=C1c2ccccc2CCc2ccccc21 [AMITRIPTYLINE]	22 nM	310 mL			0.09	0.18		0.73	0.17		20.1		
NCC(CC(=O)O)c1ccc(Cl)cc1 (stereo not given) [BACLOFEN]	4200 nM	1.7 mL			1	0.17		0.02	0.027		0.03		
CC(NC(C)(C)C)C(=O)c1cccc(Cl)c1 (stereo not given) [BUPROPION]	79 nM	16 mL			0.31	2		2	0.49		9.78		
COc1ccc2c3c1O[C@H]1[C@@H](O)C=C[C@H]4[C@@H](C2)N(C)CC[C@@]341 [CODEINE]	210 nM	3.2 mL	2.7	0.89	0.95	0.79				0.54			
CC(C)Nc1cccnc1N1CCN(C(=O)c2cc3cc(NS(C)(=O)=O)ccc3[nH]2)CC1 [DELAVIRDINE]	17 nM	40 mL	0.03	0.043	0.016	0.23				0.051			
NCC1(CC(=O)O)CCCCC1 [GABAPENTIN]	5200 nM	4.6 mL			1	0.16		0.14	0.067		0.64		
COc1ccc2c(c1)c(CC(=O)O)c(C)n2C(=O)c1ccc(Cl)cc1 [INDOMETHACIN]	200 nM	14 mL	0.01	0.11	0.01	0.27				0.17			
Nc1nnc(-c2cccc(Cl)c2Cl)c(N)n1 [LAMOTRIGINE]	1800 nM	4.6 mL		0.88	0.51	1.1				0.86		2.02	
C[C@H]1COc2c(N3CCN(C)CC3)c(F)cc3c(=O)c(C(=O)O)cn1c23.C[C@H]1COc2c(N3CCN(C)CC3)c(F)cc3c(=O)c(C(=O)O)cn1c23.O [LEVOFLOXACIN]	590 nM	1.7 mL			0.82	0.18		0.12	0.19		0.17		
CN(C)C(=O)C(CCN1CCC(O)(c2ccc(Cl)cc2)CC1)(c1ccccc1)c1ccccc1 [LOPERAMIDE]	54 nM	370 mL			0.06			0.007	0.037		0.15		
CN(Cc1cnc2nc(N)nc(N)c2n1)c1ccc(C(=O)N[C@@H](CCC(=O)O)C(=O)O)cc1 [METHOTREXATE]	2900 nM	0.68 mL	0.004	0.006	1	0.062				0.007			
COCCc1ccc(OCC(O)CNC(C)C)cc1 (stereo not given) [METOPROLOL]	750 nM				0.9								
CN1CC[C@]23c4c5ccc(O[C@@H]6O[C@H](C(=O)O)[C@@H](O)[C@H](O)[C@H]6O)c4O[C@H]2[C@@H](O)C=C[C@H]3[C@H]1C5 [MORPHINE 3-GLUCURONIDE]	2700 nM	0.6 mL			1	0.081		0.011	0.049		0.007		
CN1CC[C@]23c4c5ccc(O)c4O[C@H]2[C@@H](O[C@@H]2O[C@H](C(=O)O)[C@@H](O)[C@H](O)[C@H]2O)C=C[C@H]3[C@H]1C5 [MORPHINE GLUCURONIDE]	2100 nM	0.99 mL			0.98	0.1		0.008	0.017		0.008		
CO[C@@]1(NC(=O)C(C(=O)O)c2ccc(O)cc2)C(=O)N2C(C(=O)O)=C(CSc3nnnn3C)CO[C@@H]21 (stereo not given in full) [MOXALACTAM]	3800 nM	0.57 mL	0.003	0.019	0.32	0.41				0.02			

SMILES	Cp(f) (Plasma [1])	Vdu (Brain)	Kp at 4 h (in vivo [2]; brain)	Kp uu at 4 h (in vivo [3]; brain)	fraction unbound at 4 h (in vitro)	Kp uu (clinical)	BPR [4]	Kp uu at 4 h (in vivo [3]; brain and plasma)	Kp uu at 4 h (in vivo [5]; CSF and plasma)	Kp uu at 4 h (in vivo [5]; csf)	Kp at 4 h (in vivo [2]; brain and plasma)	BPR ([4]; Sprague-Dawley, 2 (umol/kg)/hr)	Fu (Plasma [6])
CC(C)(C)NCC(O)COc1cccc2c1CC(O)C(O)C2 (stereo not given) [NADOLOL]	780 nM				0.86								
O=C1CN(/N=C/c2ccc([N+](=O)[O-])o2)C(=O)N1 [NITROFURANTOIN]	710 nM	1.6 mL	0.008	0.011	0.48					0.0099			
CCn1cc(C(=O)O)c(=O)c2cc(F)c(N3CCNCC3)cc21 [NORFLOXACIN]	700 nM	2.9 mL	0.07	0.028	0.87	0.11				0.018			
C=CCOc1ccccc1OCC(O)CNC(C)C (stereo not given) [OXPRENOLOL]	210 nM	11.8 mL	1.06	0.2	0.45					0.1			
COc1ccc2c3c1O[C@H]1C(=O)CC[C@@]4(O)[C@@H](C2)N(C)CC[C@]314 [OXYCODONE]	330 nM				0.87								
CN1CC[C@]23c4c5ccc(O)c4O[C@H]2C(=O)CC[C@@]3(O)[C@H]1C5 [OXYMORPHONE]	240 nM	4 mL			0.73			0.79	0.91		2.29		
CCC(C(N)=O)(C(N)=O)c1ccccc1 [PHENYLETHYLMALONAMIDE]	4300 nM	0.9 mL			0.55			1.25	1.4		0.64		
CC(C)NCC(O)COc1cccc2[nH]ccc12 (stereo not given) [PINDOLOL]	160 nM				0.43	0.52		0.5	0.11		1.56		
CC(C)NCC(O)COc1cccc2ccccc12 (stereo not given) [PROPRANOLOL]	51 nM	118 mL			0.09	0.42		0.61	0.49		6.59		
CO[C@H]1/C=C/O[C@@]2(C)Oc3c(C)c(O)c4c(O)c(c(/C=N/N5CCN(C)CC5)c(O)c4c3C2=O)NC(=O)/C(C)=C\C=C\[C@H](C)[C@H](O)[C@@H](C)[C@@H](O)[C@@H](C)[C@H](OC(C)=O)[C@@H]1C [RIFAMPIN]	830 nM				0.12								
O=C(O)c1ccccc1O [SALICYLIC ACID]	5600 nM	1 mL	0.05	0.19	0.28	0.19				0.16			
O=C(O)c1cc(/N=N/c2ccc(S(=O)(=O)Nc3ccccn3)cc2)ccc1O [SULFASALAZINE]	13 nM				0.005				0.032				
Nc1c2c(nc3ccccc13)CCCC2 [TACRINE]	120 nM	22 mL	9.56	0.78	0.55	0.74				0.67			
CCCC(C)C1(CC)C(=O)NC(=S)NC1=O (stereo not given) [THIOPENTAL]	550 nM				0.19								
CSc1ccc2c(c1)N(CCC1CCCCN1C)c1ccccc1S2 (stereo not given) [THIORIDAZINE]	1.3 nM	3333 mL	3.75	0.45		1.4				0.21			0.002
CC1(C)O[C@@H]2[C@@H](CO[C@@]3(COS(N)(=O)=O)OC(C)(C)O[C@@H]23)O1 [TOPIRAMATE]	3400 nM	3.2 mL			0.79	1		0.33	0.63		0.84		
COc1cccc(C2(O)CCCCC2CN(C)C)c1 (stereo not given) [TRAMADOL]	300 nM	4.2 mL	5.29	1.46	0.85	1.44				0.71			
Cc1cn([C@H]2C[C@H](N=[N+]=[N-])[C@@H](CO)O2)c(=O)[nH]c1=O [ZIDOVUDINE]	1200 nM				0.64								
